The source of these data is paper PMC11564790 (Synthetic and Systems Biotechnology, 2024).

For this assay, the target named is MBP-fused YpsR (1-179); YpsR-MBP; heading also 'YpeR' (Yersinia pseudotuberculosis, UniProt Q669I5). The note with it: read-out: Dissociation constant.
MBP-fused YpsR (1-179); YpsR-MBP; heading also 'YpeR', sequence (Q669I5 1-179 limits assumed): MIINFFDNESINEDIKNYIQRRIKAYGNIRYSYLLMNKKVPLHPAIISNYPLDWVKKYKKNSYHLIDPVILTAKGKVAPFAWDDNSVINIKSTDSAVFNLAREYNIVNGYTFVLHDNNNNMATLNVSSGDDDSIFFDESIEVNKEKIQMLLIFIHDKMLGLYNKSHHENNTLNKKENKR
As for `CCCC(=O)CC(=O)N[C@H]1CCOC1=O` [3OC6], the Kd stood at 1.3 µM.
Then `CCCCCC(=O)CC(=O)N[C@H]1CCOC1=O` [3OC8], with 24.2 µM; and `CCCCCCCC(=O)CC(=O)N[C@H]1CCOC1=O` [3OC10], with 146 µM; and `CCCCCCCCCC(=O)CC(=O)N[C@H]1CCOC1=O` [3OC12], with 130 µM.
Then `CCCCCCCCCCCC(=O)CC(=O)N[C@H]1CCOC1=O` [3OC14], with 18.2 µM.
The result for `CCCCCC(=O)N[C@H]1CCOC1=O` [C6] reads 6.6 µM; that for `CCCCCCCC(=O)N[C@H]1CCOC1=O` [C8], 15.6 µM.
As for `CCCCCCCCCC(=O)N[C@H]1CCOC1=O` [C10], the Kd came to 21.3 µM.
